Results taken from ChEMBL document CHEMBL5696441 (Nat Chem Biol, 2011).
pIC50: −log10 of the molar value.

Columns and labels:
[1] = biological target: Atypical kinase COQ8B, mitochondrial (Homo sapiens) (UniProt Q96D53); assay: Inhibition of ADCK4 (unknown origin) assessed as remaining activity at 1 uM by Kinome scan method relative to control
[2] = biological target: Mitogen-activated protein kinase kinase kinase 5 (Homo sapiens) (UniProt Q99683); assay: Inhibition of ASK1 (unknown origin) assessed as remaining activity at 1 uM by Kinome scan method relative to control
[3] = biological target: Serine/threonine-protein kinase B-raf (Homo sapiens) (UniProt P15056); assay: Inhibition of BRAF (unknown origin) assessed as remaining activity at 1 uM by Kinome scan method relative to control
[4] = biological target: Epidermal growth factor receptor (Homo sapiens) (UniProt P00533); assay: Inhibition of EGFR (unknown origin) assessed as remaining activity at 1 uM by Kinome scan method relative to control
[5] = biological target: Ephrin type-A receptor 6 (Homo sapiens) (UniProt Q9UF33); assay: Inhibition of EPHA6 (unknown origin) assessed as remaining activity at 1 uM by Kinome scan method relative to control
[6] = biological target: Mitogen-activated protein kinase 10 (Homo sapiens) (UniProt P53779); assay: Inhibition of JNK3 (unknown origin) assessed as remaining activity at 1 uM by Kinome scan method relative to control
[7] = biological target: Tyrosine-protein kinase Mer (Homo sapiens) (UniProt Q12866); assay: Inhibition of MERTK (unknown origin) assessed as remaining activity at 1 uM by Kinome scan method relative to control
[8] = test system: Proto-oncogene tyrosine-protein kinase receptor Ret (Homo sapiens), P07949 [V804M]; assay: Inhibition of RET V804M (unknown origin) assessed as remaining activity at 1 uM by Kinome scan method relative to control
[9] = biological target: Cytoplasmic tyrosine-protein kinase BMX (Homo sapiens) (UniProt P51813); assay: Inhibition of human BMX assessed as residual activity at 1 uM using polyEy as substrate in presence of 33P-ATP by ProQinase assay relative to control
[10] = biological target: T1, Homeodomain-interacting protein kinase 4 (Homo sapiens) (UniProt Q8NE63); assay: Inhibition of human HIPK4 assessed as residual activity at 1 uM using RBER-IRStide as substrate in presence of 33P-ATP by ProQinase assay relative to control
T1 sequence (whole entry): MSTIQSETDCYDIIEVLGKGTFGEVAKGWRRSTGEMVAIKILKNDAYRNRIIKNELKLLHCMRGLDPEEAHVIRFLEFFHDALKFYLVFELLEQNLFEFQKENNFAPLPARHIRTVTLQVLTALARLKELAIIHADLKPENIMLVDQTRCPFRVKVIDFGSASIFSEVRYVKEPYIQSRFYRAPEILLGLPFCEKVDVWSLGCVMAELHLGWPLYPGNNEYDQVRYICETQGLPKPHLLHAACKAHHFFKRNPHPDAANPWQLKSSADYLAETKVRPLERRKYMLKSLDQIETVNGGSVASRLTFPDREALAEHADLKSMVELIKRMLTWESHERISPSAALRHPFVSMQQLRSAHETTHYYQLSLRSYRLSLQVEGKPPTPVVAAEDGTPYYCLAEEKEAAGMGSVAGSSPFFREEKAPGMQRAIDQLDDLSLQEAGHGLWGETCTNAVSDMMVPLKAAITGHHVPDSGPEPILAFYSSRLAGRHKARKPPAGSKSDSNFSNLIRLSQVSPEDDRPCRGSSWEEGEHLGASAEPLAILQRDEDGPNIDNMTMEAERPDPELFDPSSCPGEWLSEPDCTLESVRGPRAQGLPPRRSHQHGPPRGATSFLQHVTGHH

[11] = biological target: T2, Tyrosine-protein kinase ITK/TSK (Homo sapiens) (UniProt Q08881); assay: Inhibition of human ITK assessed as residual activity at 1 uM using polyEY as substrate in presence of 33P-ATP by ProQinase assay relative to control
T2 sequence (whole entry): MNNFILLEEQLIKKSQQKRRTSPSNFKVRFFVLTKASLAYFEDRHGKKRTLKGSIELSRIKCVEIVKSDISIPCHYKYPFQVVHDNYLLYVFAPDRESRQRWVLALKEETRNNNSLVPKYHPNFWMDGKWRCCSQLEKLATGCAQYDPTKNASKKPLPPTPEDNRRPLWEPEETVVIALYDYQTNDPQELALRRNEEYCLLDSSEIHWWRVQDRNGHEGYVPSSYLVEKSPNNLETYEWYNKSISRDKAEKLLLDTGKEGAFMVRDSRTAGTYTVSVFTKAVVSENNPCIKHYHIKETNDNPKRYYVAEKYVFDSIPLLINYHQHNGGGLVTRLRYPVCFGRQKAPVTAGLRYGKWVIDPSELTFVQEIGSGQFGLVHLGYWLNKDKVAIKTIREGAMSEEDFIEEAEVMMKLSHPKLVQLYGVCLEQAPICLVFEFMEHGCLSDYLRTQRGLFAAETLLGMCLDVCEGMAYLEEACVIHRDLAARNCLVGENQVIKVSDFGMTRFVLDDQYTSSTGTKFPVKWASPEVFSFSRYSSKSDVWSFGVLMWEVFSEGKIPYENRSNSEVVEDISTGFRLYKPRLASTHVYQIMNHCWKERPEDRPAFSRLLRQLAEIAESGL

[12] = biological target: Tyrosine-protein kinase JAK1 (Homo sapiens) (UniProt P23458); assay: Inhibition of human JAK1 assessed as residual activity at 1 uM using RBER-IRStide as substrate in presence of 33P-ATP by ProQinase assay relative to control
[13] = biological target: Mitogen-activated protein kinase kinase kinase 10 (Homo sapiens) (UniProt Q02779); assay: Inhibition of human MAP3K10 assessed as residual activity at 1 uM using histon H2B as substrate in presence of 33P-ATP by ProQinase assay relative to control
[14] = biological target: Serine/threonine-protein kinase MARK1 (Homo sapiens) (UniProt Q9P0L2); assay: Inhibition of human MARK1 assessed as residual activity at 1 uM using RBER-CHKtide as substrate in presence of 33P-ATP by ProQinase assay relative to control
[15] = biological target: Serine/threonine-protein kinase Nek7 (Homo sapiens) (UniProt Q8TDX7); assay: Inhibition of human NEK7 assessed as residual activity at 1 uM using casein as substrate in presence of 33P-ATP by ProQinase assay relative to control
[16] = biological target: High affinity nerve growth factor receptor (Homo sapiens) (UniProt P04629); assay: Inhibition of human TRKA assessed as residual activity at 1 uM using PolyEY as substrate in presence of 33P-ATP by ProQinase assay relative to control
[17] = biological target: Vascular endothelial growth factor receptor 3 (Homo sapiens) (UniProt P35916); assay: Inhibition of human VEGFR3 assessed as residual activity at 1 uM using polyEY as substrate in presence of 33P-ATP by ProQinase assay relative to control
[18] = Anti-inflammatory activity against human derived medium respond PBMC cells assessed as inhibition in stimulated TNF-alpha cytokine release incubated for 2 hrs in the presence of LPS/SEB/aCD28 by Luminex based sandwich immunoassay; format: functional, cell-based

Sequence of Serine/threonine-protein kinase B-raf (Homo sapiens) (P15056 whole entry): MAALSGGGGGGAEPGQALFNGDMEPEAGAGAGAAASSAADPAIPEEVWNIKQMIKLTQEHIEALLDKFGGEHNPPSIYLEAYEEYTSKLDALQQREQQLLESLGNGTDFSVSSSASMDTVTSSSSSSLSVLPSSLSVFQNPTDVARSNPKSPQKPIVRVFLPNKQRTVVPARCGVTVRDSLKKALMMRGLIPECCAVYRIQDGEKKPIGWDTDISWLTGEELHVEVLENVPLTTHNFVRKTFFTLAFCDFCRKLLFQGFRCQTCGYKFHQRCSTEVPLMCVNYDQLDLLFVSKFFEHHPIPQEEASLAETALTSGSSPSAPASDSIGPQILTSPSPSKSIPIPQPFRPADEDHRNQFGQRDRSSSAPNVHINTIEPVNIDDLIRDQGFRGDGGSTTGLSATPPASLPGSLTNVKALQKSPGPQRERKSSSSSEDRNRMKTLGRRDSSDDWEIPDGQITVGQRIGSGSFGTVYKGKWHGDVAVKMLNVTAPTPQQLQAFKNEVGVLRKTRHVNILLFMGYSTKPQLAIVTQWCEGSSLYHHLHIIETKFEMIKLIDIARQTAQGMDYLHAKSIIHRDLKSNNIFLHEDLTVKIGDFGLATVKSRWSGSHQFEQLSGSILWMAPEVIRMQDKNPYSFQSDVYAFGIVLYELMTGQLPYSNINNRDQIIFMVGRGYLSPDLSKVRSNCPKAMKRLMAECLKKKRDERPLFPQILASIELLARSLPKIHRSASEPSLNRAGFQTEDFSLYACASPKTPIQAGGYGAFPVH
Sequence of Proto-oncogene tyrosine-protein kinase receptor Ret (Homo sapiens), P07949 [V804M] (P07949 whole entry V804M): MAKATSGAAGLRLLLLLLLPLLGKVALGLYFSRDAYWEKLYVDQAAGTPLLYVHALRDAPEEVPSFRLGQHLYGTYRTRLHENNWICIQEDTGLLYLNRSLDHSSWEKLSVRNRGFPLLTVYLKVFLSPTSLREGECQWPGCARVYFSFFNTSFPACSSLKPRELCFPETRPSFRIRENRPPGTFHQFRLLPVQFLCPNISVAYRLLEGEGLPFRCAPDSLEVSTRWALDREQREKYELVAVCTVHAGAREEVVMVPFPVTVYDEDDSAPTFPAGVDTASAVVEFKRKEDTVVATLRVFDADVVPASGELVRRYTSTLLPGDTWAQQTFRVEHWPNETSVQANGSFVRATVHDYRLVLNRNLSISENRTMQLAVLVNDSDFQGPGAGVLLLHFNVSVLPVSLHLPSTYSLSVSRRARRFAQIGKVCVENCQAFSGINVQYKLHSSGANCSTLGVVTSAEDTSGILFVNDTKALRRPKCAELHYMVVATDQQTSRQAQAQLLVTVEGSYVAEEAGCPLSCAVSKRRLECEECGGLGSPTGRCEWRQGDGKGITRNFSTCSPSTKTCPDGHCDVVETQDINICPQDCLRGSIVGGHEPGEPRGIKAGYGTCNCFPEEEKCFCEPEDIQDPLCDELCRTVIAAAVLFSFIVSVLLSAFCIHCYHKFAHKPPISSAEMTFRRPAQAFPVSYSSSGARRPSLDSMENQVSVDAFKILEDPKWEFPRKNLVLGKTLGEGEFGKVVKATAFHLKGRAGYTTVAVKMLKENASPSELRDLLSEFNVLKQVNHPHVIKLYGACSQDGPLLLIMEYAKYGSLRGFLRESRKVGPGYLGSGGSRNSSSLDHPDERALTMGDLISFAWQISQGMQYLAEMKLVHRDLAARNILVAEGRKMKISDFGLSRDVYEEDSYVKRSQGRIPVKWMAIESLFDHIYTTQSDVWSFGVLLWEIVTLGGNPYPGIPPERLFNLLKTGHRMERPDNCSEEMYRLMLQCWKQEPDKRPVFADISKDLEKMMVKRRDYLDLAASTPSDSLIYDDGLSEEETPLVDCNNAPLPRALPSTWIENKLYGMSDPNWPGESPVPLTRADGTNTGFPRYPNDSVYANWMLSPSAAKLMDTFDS
Sequence of Serine/threonine-protein kinase MARK1 (Homo sapiens) (Q9P0L2 whole entry, looked up): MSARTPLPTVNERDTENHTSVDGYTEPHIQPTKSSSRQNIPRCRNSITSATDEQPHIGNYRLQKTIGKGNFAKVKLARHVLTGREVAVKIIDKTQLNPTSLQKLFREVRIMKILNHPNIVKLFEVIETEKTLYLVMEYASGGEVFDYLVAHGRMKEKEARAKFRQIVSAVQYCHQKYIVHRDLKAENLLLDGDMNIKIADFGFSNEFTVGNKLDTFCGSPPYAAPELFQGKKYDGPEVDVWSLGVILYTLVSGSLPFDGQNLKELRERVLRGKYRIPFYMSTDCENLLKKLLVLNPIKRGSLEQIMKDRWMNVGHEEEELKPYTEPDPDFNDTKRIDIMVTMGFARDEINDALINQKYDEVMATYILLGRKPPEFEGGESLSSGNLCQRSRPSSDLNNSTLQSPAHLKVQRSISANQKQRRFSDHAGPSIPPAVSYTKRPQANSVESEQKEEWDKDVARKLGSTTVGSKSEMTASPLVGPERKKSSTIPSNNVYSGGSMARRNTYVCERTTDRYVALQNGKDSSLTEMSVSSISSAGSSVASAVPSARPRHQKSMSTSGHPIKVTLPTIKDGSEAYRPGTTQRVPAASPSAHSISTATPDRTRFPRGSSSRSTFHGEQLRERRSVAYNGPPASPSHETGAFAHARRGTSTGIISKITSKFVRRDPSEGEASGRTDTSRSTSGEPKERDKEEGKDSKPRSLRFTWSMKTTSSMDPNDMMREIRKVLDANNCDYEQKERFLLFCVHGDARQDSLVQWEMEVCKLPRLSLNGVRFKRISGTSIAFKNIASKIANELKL
Sequence of Vascular endothelial growth factor receptor 3 (Homo sapiens) (P35916 whole entry): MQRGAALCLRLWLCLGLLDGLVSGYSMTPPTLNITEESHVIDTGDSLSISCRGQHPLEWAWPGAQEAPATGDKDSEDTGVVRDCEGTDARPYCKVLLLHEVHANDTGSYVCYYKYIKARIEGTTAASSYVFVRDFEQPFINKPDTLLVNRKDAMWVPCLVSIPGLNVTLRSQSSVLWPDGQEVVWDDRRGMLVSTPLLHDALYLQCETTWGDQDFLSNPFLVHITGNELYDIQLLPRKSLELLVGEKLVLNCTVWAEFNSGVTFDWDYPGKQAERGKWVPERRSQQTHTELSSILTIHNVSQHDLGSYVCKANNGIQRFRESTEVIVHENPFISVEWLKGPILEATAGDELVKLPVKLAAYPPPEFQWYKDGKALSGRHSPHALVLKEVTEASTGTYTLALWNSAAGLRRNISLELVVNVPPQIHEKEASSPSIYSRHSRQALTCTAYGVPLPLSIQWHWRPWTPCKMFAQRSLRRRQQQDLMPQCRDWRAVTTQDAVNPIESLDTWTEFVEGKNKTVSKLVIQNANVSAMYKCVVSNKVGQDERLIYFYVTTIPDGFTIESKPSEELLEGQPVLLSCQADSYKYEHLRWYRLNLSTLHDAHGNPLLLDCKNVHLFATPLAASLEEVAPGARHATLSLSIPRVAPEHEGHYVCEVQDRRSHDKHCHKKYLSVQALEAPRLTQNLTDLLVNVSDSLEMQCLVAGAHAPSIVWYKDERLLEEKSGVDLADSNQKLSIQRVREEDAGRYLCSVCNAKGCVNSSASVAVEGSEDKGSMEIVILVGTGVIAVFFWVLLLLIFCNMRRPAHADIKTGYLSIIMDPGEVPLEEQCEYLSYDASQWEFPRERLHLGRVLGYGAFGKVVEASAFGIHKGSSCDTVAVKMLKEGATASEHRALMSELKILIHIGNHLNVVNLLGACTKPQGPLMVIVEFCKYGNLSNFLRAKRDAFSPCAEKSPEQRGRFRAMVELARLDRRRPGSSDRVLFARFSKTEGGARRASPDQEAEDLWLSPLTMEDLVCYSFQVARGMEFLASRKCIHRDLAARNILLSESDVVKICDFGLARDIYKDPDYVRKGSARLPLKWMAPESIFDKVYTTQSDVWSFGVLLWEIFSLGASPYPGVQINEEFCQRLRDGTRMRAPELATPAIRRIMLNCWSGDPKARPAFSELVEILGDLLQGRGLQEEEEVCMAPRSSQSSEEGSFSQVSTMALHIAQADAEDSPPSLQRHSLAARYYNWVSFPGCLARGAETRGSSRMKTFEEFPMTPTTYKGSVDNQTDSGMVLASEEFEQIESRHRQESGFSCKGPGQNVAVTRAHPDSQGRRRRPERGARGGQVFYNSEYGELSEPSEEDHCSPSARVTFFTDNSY
Sequence of Tyrosine-protein kinase Mer (Homo sapiens) (Q12866 whole entry): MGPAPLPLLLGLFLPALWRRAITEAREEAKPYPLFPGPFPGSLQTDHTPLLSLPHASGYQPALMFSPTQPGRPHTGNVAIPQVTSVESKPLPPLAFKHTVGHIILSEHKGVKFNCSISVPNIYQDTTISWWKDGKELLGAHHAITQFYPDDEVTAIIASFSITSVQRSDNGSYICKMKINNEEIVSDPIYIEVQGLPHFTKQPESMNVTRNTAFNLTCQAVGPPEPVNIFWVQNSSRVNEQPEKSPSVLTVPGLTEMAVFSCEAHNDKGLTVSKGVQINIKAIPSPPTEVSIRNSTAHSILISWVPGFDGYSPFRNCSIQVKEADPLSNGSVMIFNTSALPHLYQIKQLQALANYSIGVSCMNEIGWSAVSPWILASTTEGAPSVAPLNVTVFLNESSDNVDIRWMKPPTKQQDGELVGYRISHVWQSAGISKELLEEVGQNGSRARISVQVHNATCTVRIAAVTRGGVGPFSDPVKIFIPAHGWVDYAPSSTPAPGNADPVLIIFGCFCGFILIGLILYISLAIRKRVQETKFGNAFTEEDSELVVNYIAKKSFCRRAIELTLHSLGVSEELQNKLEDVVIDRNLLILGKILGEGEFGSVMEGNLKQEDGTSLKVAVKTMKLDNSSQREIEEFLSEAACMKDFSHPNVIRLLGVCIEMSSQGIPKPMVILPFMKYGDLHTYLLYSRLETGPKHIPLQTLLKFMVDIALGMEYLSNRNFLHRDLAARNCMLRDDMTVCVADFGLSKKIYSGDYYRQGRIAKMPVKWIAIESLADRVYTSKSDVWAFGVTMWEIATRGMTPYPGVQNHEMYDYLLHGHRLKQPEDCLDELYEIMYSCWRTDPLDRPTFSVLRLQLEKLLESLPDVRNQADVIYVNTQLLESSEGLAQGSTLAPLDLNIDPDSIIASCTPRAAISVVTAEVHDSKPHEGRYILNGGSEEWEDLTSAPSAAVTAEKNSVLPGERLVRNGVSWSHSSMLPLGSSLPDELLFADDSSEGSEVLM

Q: With `O=C1c2ccc(Nc3ccc(F)cc3F)cc2CCc2ccc(OC[C@H](O)CO)cc21` [Skepinone-L] as the compound, how does the Activity [1] read?
A: 100%

Q: What about the Activity [2] of the same compound?
A: 93%

Q: And the Activity [3]?
A: 100%

Q: And the Activity [4]?
A: 98%

Q: And the Activity [5]?
A: 96%

Q: And the Activity [6]?
A: 61%

Q: And the Activity [7]?
A: 92%

Q: And the Activity [8]?
A: 95%

Q: And the Activity [9]?
A: 108%

Q: And the Activity [10]?
A: 116%

Q: What about the Activity [11] of the same compound?
A: 97%

Q: And the Activity [12]?
A: 93%

Q: What about the Activity [13] of the same compound?
A: 101%

Q: And the Activity [14]?
A: 88%

Q: What about the Activity [15] of the same compound?
A: 83%

Q: And the Activity [16]?
A: 111%

Q: What about the Activity [17] of the same compound?
A: 100%

Q: What about the pIC50 [18] of the same compound?
A: 6.07
